Columns and labels:
[1] = system: A2780 and SKOV3 cells and the resistant subcultures; assay: Cell cycle distribution, PI staining and FACS; format: cell-based; conditions: 48 h treatment, 24 h recovery
Description: The reduced viability under treatment, as measured by the MTT assay, can be a result of cell cycle arrest and/or increased cell death. To further evaluate the anticancer properties of the ruthenium(II) complexes we measured cell cycle distribution and cell death rates after treatment with Ru3 or Ru14. After seeding and attaching, the cells were treated for 48 h with different concentrations of substances. For cell cycle distribution measurements, a recovery phase of 24 h was added after treatment, and cells were fixed and stained with PI for the DNA content. Arresting of cells in specific cell cycle phases gives them time to resolve the DNA damage (G1 arrest) or is an initial step to apoptosis if DNA damage is too severe (G2/M arrest).
(§1) To examine cell cycle distribution and cell death rates, 30,000 cells were seeded in 12 well plates. After attaching for 24 h cells were treated with Cisplatin, Ru3 and Ru14 for 48 h at various concentrations for cell cycle and cell death analyses. For cell death analysis, immediately after treatment cells were stained with Propidium Iodid (PI) (1 µg/mL) on ice and the number of dead cells was measured using BD Canto II. For cell cycle distribution, cells recovered for 24 h after treatment. Afterwards, cells were fixed in ice-cold, 50% EtOH for 24 h at −20 °C. For DNA staining, fixed cells were incubated in PBS with 0.05% Triton-X, 0.1 µg/mL RNaseA and 50 µg/mL PI for 1 h at 4 °C in dark. DNA content was measured using BD Canto II.

[2] = system: Cisplatin resistant cell lines; assay: Mean IC50 (MTT assay) on Cisplatin resistant cell lines; format: cell-based
Description: Thus, it can be concluded that the biological activity is mediated by a longer chain (butoxy) at the meta-position, whereas the ortho- and para-positions are more suitable with a shorter chain (ethoxy). To have a further look at the influence of the different ligand systems and substitution patterns, all β-Hydroxydithiocinnamic acid alkyl esters were tested under same conditions as their derived ruthenium(II) complexes (Figure 5B, Supplementary Table S3). […] All ligands are less cytotoxic than Cisplatin itself and therefore the metal(II) center is necessary for the high cytotoxic activity, what is in clear contrast to the literature for O,S-chelating ruthenium(II) or osmium(II) compounds with thiomaltol ligand [48, 71] but confirmed for Ru(II)/Os(II) compounds with N,N-bidentate glycosyl heterocyclic ligands. This is exemplarily shown by the comparison of mean IC50 values for Cisplatin, L14, and Ru14 (Supplementary Figure S8).
(§2) Ovarian cancer cell lines were cultured under standard conditions (5% CO2, 37 °C, 90% humidity) in RPMI medium supplemented with 10% FCS, 100 U/mL penicillin and 100 µg/mL streptomycin (Life Technologies, Dreieich, Germany). Cisplatin (Sigma, Taufkirchen, Germany) was freshly dissolved at 1 mg/mL in 0.9% NaCl solution and diluted appropriately. New ruthenium(II) complexes and ligands were dissolved in dmso. Platinum-resistant A2780 and SKOV3 cells were established by repeated rounds of 3-day incubations with increasing amounts of Cisplatin starting with 0.1 µM. The concentration was doubled after 3 incubations, interrupted by recovery phases with normal medium. […] Determinations of IC50 values were carried out using the CellTiter96 non-radioactive proliferation assay (MTT assay, Promega, Mannheim, Germany). After seeding 5000 cells per well in a 96-well plate, cells were allowed to attach for 24 h and were incubated for 48 h with different concentrations of the substances ranging from 0 to 500 µM for Ruthenium and 0 to 1000 µM for ligand tests (0, 1, 10, 50, 100, 500, 1000 µm), for Cisplatin from 0 to 100 µM (0.1, 1, 5, 10, 50, 100 µM). Each measurement was done in triplicate and repeated 3 times. The proportion of viable cells was quantified by the MTT assay and after background subtraction relative values compared to the mean of medium controls were calculated. Non-linear regression analyses applying the Hill slope were run in GraphPad 5.0 software.

A2780 cells = assay: Cell death rate, PI staining of live cells (FACS); format: cell-based; conditions: 48 h
Description: (§3) For cell death rate analysis, live cells were stained with PI immediately after 48 h treatment. […] Furthermore, resistant cells show much lower Cisplatin-induced cell death rates (Figure 7). […] In A2780 cells, both compounds trigger similar cell death rates in parental and Cisplatin-resistant cells. Cisplatin-resistant SKOV3 are much more sensitive to both ruthenium(II) complexes than the parental counterpart, with a median of 3.3-fold higher sensitivity.
as §1

histone γH2AX-foci = assay: γH2AX foci analysis (DNA damage); format: cell-based; conditions: IC50 concentration, 24h incubation
Text: ROS production may also lead to endoplasmatic reticulum stress-induced apoptosis. In general, many ruthenium(II) complexes with different ligands induce intracellular ROS [94, 95, 96, 97, 98, 99]. Moreover, the cytotoxic activity of Os(II) compounds can be inhibited by vitamin E co-treatment pointing to the contribution of ROS [88]. In addition to mitochondrial dysfunction, Ru(II) complexes may affect glycolysis or topoisomerase I/II, thus inducing necroptosis. Ru(II) compounds with modified pyrithione ligands were recently described to overcome platinum resistance in ovarian cancer cells by inducing cytostatic G1 arrest, TrxR inhibition, and cell membrane damage. […] Future studies may identify the specific target proteins enabling molecular docking studies and specific refinement of the organo-metal compound structure. Altogether, presented compounds may use some of these alternative modes of action as well, as we see efficient cell death but no cell cycle arrest induction by Ru3/Ru14. Furthermore, the ruthenium(II) core atom might be responsible for this effect because of the lack of anticancer behaviour of the ligand L14 (Supplementary Figure S8). To further confirm that Ru compounds use another mechanism of action, DNA damage analyses were conducted for Ru3 and Ru14 (Figure 8). […]

SKOV3cis = assay: MTT assay (CellTiter96), cytotoxic activity; format: cell-based; conditions: for IC50: Cisplatin resistant SKOV3, MTT assay, 48 h incubation; for RF SKOV3 (resistance factor): SKOV3cis vs SKOV3
Description: (§4) The biological behaviour of all substances was characterized by their cytotoxic activity against a panel of cell lines enabling an understanding of the structure-activity relationship. Cytotoxic activity was determined on ovarian carcinoma cell lines SKOV3 and A2780 as well as their Cisplatin resistant analogues (SKOV3cis and A2780cis) and the lung carcinoma cell line A549. Due to a low solubility in water, dmso is used as a solvent for the preparation of a dilution series in cell culture experiments. The toxic influence of dmso was determined earlier and experiments were carried out with 0.5% dmso in cell culture media and this concentration was used as reference sample in each MTT assay (details: Section 3). […] Resistance factors (RF) were determined for all substances (for IC50 values and RF of β-Hydroxydithiocinnamic acid esters L1–L18, see Tables S2 and S3, Supplementary part). All investigated ruthenium(II) compounds show lower RF values than Cisplatin on ovarian carcinoma cell lines, ranging from 0.2 to 1.5 (Table 3). Whereas the IC50 values on the non-resistant cell lines are in most cases higher than the IC50 of the reference substance, no increase of IC50 values is observed for the resistant cell lines. Contrary, eight ruthenium complexes show lower IC50 values on SKOV3cis than Cisplatin and four compounds on A2780cis. Thus, it can be concluded that these compounds are able to bypass the Cisplatin resistance mechanism in these cell lines pointing to a different mechanism of action.
as §2

A2780 = assay: MTT assay (CellTiter96), cytotoxic activity; format: cell-based; conditions: 48 h incubation
Description: as §4, §2

A549 = assay: MTT assay (CellTiter96), cytotoxic activity; format: cell-based; conditions: lung carcinoma cell line, 48 h incubation
Description: as §4, §2

A2780cis = assay: MTT assay (CellTiter96), cytotoxic activity; format: cell-based; conditions: for RF A2780 (resistance factor): A2780cis vs A2780; for IC50: Cisplatin resistant A2780, MTT assay, 48 h incubation
Description: as §4, §2

SKOV3 = assay: MTT assay (CellTiter96), cytotoxic activity; format: cell-based; conditions: 48 h incubation
Description: as §4, §2

[3] = Stability determination via 1H NMR spectroscopy; format: physicochemical
Description: To investigate the behaviour of the ruthenium(II) complexes Ru1, Ru3, and Ru8 in solution, we analysed kinetic measurements via ^1H NMR spectroscopy (every 1 h, one spectra). NMR signals and behaviour of the ruthenium and osmium compounds is similar, but osmium(II) compounds show a slower ligand exchange mechanism and a higher stability in general. […] The same measurements were done also with dmso at room temperature. Similar changes in the spectra occur at room temperature and new species are detectable (exemplified for Ru1 in the Supplementary Figure S3). However, slower speciation processes in comparison to 37 °C measurements occur, which is exemplarily represented by the disappearance of the double-doublets of the cymene ligand after 29 h (rt, Supplementary Figure S3) vs. 5 h (37 °C, Supplementary Figure S2). As reported earlier, dmso molecules are able to bind to the ruthenium(II) center by losing the cymene ligand and changing the structure to an octahedral metal(II) coordination sphere. Thus, an explanation for the new species can be the binding of dmso molecules to the ruthenium(II) center after loss of the cymene ligand representing the new species in the ^1H NMR spectra. To support this hypothesis, the ruthenium(II) complexes were measured under same conditions (rt, 72 h) in CD2Cl2, and it was shown that the compounds are stable under these conditions in the other solvent (see Supplementary Figure S4).
NMR spectra were measured via NMR spectroscopy on Bruker Avance 400 MHz. Substances were solved in dmso-d6 or CD2Cl2 and measured directly at 37 °C or room temperature for 72 h. NS = 128 scans, t = 709 s/2891 s break, 72 measurements.

Keratinocytes = assay: IC50 on non-cancerous cell cultures; format: cell-based; conditions: normal primary short-term cell culture
MCF10A = assay: IC50 on non-cancerous cell cultures; format: cell-based; conditions: non-cancerous breast epithelial cell line
Fibroblasts = assay: IC50 on non-cancerous cell cultures; format: cell-based; conditions: normal primary short-term cell culture
SKOV3 cells = assay: Cell death rate, PI staining of live cells (FACS); format: cell-based; conditions: parental SKOV3, 15 µM, 48 h
Description: as §3, §1

For `CSC(=S)C=C([O][Ru][Cl])c1cccc(O)c1.Cc1ccc(C(C)C)cc1` [Ru3, [(η^6-p-cymene)Ru(1-(3-hydroxyphenyl)-3-(methylthio)-3-thioxo-prop-1-en-1-olate-O,S)Cl]], the “effect on cell cycle distribution” value [1] was “no or only a minor effect on cell cycle distribution”, the “mean IC50 value on Cisplatin resistant cell lines compared with Cisplatin” value [2] was “lower” and the “capacity to induce cell death in vitro” value (A2780 cells; A2780 and SKOV3 cells, 20 µM and 30 µM) was “high capacity to induce cell death”. The γH2AX-foci induction (histone γH2AX-foci) was “less γH2AX-foci as Cisplatin”, the IC50 (SKOV3cis) was 12.1 µM and the “RF SKOV3 (resistance factor)” value (SKOV3cis) was 0.6. The IC50 (A2780) was 8.7 µM, the IC50 (A549) was 8 µM and the “RF A2780 (resistance factor)” value (A2780cis) was 0.9. It also gave an IC50 (A2780cis) of 7.4 µM and an IC50 (SKOV3) of 18.9 µM.
With “[(n^6-p-cymene)Ru(1-phenyl-3-(methylthio)-3-thioxo-prop-1-en-1-olate-O,S)Cl] [Ru1]” the “disappearance of the double-doublets of the cymene ligand” value ([3]; dmso, rt) was 29 h, the “disappearance of the double-doublets of the cymene ligand” value ([3]; dmso-d6, 37 °C) was 5 h and the “loss of the methine proton signal” value ([3]; dmso-d6, 37 °C) was 7 h. For the same molecule, the IC50 (SKOV3cis) was 18.4 µM, the “RF SKOV3 (resistance factor)” value (SKOV3cis) was 0.5 and the IC50 (A2780) was 12.8 µM. For the same molecule, the IC50 (A549) was 28.8 µM, the “RF A2780 (resistance factor)” value (A2780cis) was 0.75 and the IC50 (A2780cis) was 9.6 µM. The IC50 (SKOV3) was 34.7 µM.
With “[(η^6-p-cymene)Os(1-(3-hydroxyphenyl)-3-(ethylthio)-3-thioxo-prop-1-en-1-olate-O,S)Cl] [Os3]” the “stability determination using NMR spectroscopy” value ([3]; osmium(II) compounds) was “no structural changes”, the IC50 (Keratinocytes) was 84.5 µM and the IC50 (MCF10A) was 21.3 µM. The IC50 (SKOV3cis) was 2.3 µM, the “RF SKOV3 (resistance factor)” value (SKOV3cis) was 2.1 and the IC50 (A2780) was 0.4 µM. The IC50 (A549) was 0.7 µM, the “RF A2780 (resistance factor)” value (A2780cis) was 1 and the IC50 (A2780cis) was 0.4 µM. It also gave an IC50 (SKOV3) of 1.1 µM and an IC50 (Fibroblasts) greater than 100 µM.
In the case of cis-[Pt(NH3)2Cl2] [Cisplatin], the “effect on cell cycle distribution” value ([1]; 5 µM, parental A2780 and SKOV3 cells) is reported as “cell cycle arrest in G2/M phase”, the IC50 (Keratinocytes) is reported as 5.7 µM and the “cell death compared to untreated cells” value (SKOV3 cells) is reported as 6.3 fold. For the same molecule, the “cell death compared to untreated cells” value (A2780 cells; parental A2780, 15 µM, PI staining) was 29.9 fold, the IC50 (MCF10A) was 3.3 µM and the IC50 (SKOV3cis) was 13.5 µM. The “RF SKOV3 (resistance factor)” value (SKOV3cis) was 3.6, the IC50 (A2780) was 1.3 µM and the IC50 (A549) was 7.6 µM. For the same molecule, the “RF A2780 (resistance factor)” value (A2780cis) was 4.7, the IC50 (A2780cis) was 6.1 µM and the IC50 (SKOV3) was 3.8 µM. The IC50 (Fibroblasts) was 4.1 µM.

Reference: paper PMC9102668, “Highly Cytotoxic Osmium(II) Compounds and Their Ruthenium(II) Analogues Targeting Ovarian Carcinoma Cell Lines and Evading Cisplatin Resistance Mechanisms” (International Journal of Molecular Sciences, 2022)
